Measurements from patent publication US20240269139A1, “COMPOUNDS FOR TARGETED PROTEIN DEGRADATION OF KINASES” (DANA-FARBER CANCER INSTITUTE, INC., priority 2020, published 2024).
Read-outs that look alike come from different tables or passages of the source.

Legend:
Assay type in all cases: cell-based
[1] = biological target: T1, protein kinases (human kinome) (Homo sapiens, UniProt O94768); settings: for logFC STK17B (O94768): direction down; for logFC: STK17B (O94768)
T1 sequence (O94768 1-372): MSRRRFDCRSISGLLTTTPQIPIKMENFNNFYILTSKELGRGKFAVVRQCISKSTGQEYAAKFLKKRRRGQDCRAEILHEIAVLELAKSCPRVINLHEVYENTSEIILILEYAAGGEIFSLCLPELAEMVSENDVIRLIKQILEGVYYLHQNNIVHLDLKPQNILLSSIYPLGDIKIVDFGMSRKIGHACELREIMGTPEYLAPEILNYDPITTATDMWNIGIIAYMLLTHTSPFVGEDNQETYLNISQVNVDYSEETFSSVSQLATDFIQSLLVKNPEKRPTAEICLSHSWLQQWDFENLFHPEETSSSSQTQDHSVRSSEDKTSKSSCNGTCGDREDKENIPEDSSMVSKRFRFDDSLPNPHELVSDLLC

[2] = biological target: protein kinases (human kinome) (Homo sapiens, UniProt P45984)
Chain of protein kinases (human kinome) (Homo sapiens, UniProt P45984) (P45984 whole entry): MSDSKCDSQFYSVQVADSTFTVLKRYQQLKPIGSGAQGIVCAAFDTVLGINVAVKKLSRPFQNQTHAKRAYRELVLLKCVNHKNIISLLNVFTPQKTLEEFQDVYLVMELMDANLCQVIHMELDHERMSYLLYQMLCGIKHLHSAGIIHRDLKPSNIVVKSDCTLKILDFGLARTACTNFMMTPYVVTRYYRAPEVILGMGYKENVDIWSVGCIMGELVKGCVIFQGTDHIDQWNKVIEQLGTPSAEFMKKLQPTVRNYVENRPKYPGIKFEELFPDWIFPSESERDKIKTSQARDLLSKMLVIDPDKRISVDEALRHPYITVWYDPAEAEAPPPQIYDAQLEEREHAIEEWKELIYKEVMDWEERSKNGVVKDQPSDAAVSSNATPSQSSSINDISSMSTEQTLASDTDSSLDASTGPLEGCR

[3] = biological target: protein kinases (human kinome) (Homo sapiens, UniProt P41240); settings: for logFC of CSK: Accession P41240; for logFC CSK: CSK (P41240), down
Chain of protein kinases (human kinome) (Homo sapiens, UniProt P41240) (P41240 whole entry): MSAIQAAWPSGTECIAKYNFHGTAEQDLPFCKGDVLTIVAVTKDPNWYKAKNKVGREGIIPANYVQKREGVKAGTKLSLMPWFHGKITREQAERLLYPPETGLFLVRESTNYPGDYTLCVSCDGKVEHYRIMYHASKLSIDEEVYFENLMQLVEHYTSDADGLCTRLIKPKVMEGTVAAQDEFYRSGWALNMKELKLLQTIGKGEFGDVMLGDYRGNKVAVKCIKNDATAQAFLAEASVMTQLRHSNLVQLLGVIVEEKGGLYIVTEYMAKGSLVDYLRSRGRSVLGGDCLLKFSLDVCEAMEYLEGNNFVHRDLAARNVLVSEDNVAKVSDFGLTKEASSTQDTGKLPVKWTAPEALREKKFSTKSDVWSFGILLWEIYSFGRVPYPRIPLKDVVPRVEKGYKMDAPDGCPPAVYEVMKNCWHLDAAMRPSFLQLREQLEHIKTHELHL

[4] = biological target: protein kinases (human kinome) (Homo sapiens, UniProt Q9HBH9); settings: for logFC MKNK2 (Q9HBH9): Experiment wp152; for logFC: MKNK2 (Q9HBH9-1)
Chain of protein kinases (human kinome) (Homo sapiens, UniProt Q9HBH9) (Q9HBH9 whole entry): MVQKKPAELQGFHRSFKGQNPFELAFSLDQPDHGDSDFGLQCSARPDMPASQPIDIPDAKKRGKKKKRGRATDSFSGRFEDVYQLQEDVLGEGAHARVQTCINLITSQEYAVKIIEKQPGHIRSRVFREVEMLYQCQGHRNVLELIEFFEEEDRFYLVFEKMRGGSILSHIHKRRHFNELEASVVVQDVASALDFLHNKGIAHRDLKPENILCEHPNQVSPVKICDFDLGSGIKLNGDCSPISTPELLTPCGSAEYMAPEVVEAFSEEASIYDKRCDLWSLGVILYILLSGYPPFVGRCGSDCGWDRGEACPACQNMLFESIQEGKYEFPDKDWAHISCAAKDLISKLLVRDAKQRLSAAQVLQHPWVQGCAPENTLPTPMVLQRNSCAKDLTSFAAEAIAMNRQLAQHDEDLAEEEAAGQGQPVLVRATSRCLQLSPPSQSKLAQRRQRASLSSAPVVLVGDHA

[5] = biological target: protein kinases (human kinome) (Homo sapiens, UniProt Q00537)
Chain of protein kinases (human kinome) (Homo sapiens, UniProt Q00537) (Q00537 whole entry): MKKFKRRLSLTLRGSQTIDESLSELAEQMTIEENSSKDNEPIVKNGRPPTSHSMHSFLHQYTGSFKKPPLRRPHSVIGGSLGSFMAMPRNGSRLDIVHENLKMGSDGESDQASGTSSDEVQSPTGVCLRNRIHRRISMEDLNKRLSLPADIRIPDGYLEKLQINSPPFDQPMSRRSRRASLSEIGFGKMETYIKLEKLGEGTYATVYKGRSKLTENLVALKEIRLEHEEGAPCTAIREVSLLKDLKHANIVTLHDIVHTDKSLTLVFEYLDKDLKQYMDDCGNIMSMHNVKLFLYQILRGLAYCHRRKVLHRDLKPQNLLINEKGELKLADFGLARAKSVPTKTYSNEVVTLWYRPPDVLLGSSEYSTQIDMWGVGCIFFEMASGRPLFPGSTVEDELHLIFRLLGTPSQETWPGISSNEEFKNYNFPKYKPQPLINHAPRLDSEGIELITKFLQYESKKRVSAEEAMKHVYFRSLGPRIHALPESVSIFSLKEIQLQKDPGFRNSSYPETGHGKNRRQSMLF

[6] = biological target: protein kinases (human kinome) (Homo sapiens, UniProt P50613)
Chain of protein kinases (human kinome) (Homo sapiens, UniProt P50613) (P50613 whole entry): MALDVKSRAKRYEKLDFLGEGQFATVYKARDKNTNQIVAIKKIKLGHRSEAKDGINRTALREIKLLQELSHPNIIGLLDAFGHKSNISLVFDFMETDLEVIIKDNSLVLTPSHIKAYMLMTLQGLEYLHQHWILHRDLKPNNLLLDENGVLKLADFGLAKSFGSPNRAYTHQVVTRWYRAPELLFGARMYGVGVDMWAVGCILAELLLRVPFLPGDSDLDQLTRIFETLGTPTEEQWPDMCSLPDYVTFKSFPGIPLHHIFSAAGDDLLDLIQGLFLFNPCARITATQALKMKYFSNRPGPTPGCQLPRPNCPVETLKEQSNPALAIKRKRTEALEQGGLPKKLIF

[7] = MAPK9 P45984-1, experiment wp045
[8] = MAPK9 P45984-1, experiment wp117
[9] = MAPK9 P45984-1, experiment wp103
[10] = MAPK9 P45984-1, experiment wp105
[11] = MAPK9 P45984-1, experiment wp107
[12] = MAPK9 P45984-1, experiment wp114
[13] = MAPK9 P45984-1, experiment wp160, 2 hr
[14] = MAPK9 P45984-1, experiment wp160, 4 hr
[15] = MAPK9 P45984-1, experiment wp160, 8 hr
[16] = MAPK9 P45984-1, experiment wp172
[17] = Experiment wp045, direction down
[18] = MAPK9 P45984-1, experiment wp168

## O=C(COc1cccc2c1C(=O)N(C1CCC(=O)NC1=O)C2=O)NCCCCCCCN1CCc2cc(Nc3ncc(C4CC4)c(NCCCNC(=O)C4CCC4)n3)ccc2C1 (stereo not drawn) [BSJ.04.178]
[1]; Experiment wp134
  logFC STK17B (O94768): −1.604
[1]; experiment wp134
  logFC: −1.604

## Cc1ncsc1-c1ccc([C@H](C)NC(=O)[C@@H]2C[C@@H](O)CN2C(=O)[C@@H](NC(=O)CCCCCN2CCc3cc(Nc4ncc(C5CC5)c(NCCCNC(=O)C5CCC5)n4)ccc3C2)C(C)(C)C)cc1 [BSJ.05.026]
[1]; Experiment wp195
  logFC STK17B (O94768): −0.9299
[1]; experiment wp195
  logFC: −0.9299

## CS(=O)(=O)Nc1cccc(-c2csc3cnc(Nc4ccc(N5CCN(CCCCCOc6cccc7c6C(=O)N(C6CCC(=O)NC6=O)C7=O)CC5)cc4)nc23)c1 (stereo not drawn) [DB0614, N-(3-(2-((4-(4-(5-((2-(2,6-Dioxopiperidin-3-yl)-1,3-dioxoisoindolin-4-yl)oxy)pentyl)piperazin-1-yl)phenyl)amino)thieno[3,2-d]pyrimidin-7-yl)phenyl)methanesulfonamide]
[2]; [7]
  logFC: −0.5244
  logFC MAPK9: −0.5244
[2]; [8]
  logFC: −0.564
  logFC MAPK9: −0.564
[1]; Experiment wp045
  logFC STK17B (O94768): −0.9829
[1]; Experiment wp117
  logFC STK17B (O94768): −0.7771
[1]; experiment wp045
  logFC: −0.9829
[1]; experiment wp117
  logFC: −0.7771

## Cc1ccc(NC(=O)c2cccc(C(F)(F)F)c2)cc1N1Cc2cnc(Nc3ccc(N4CCN(Cc5cn(CCCCCOc6cccc7c6C(=O)N(C6CCC(=O)NC6=O)C7=O)nn5)CC4)nc3)nc2N(C)C1=O (stereo not drawn) [DB0646, N-(3-(7-((6-(4-((1-(5-((2-(2,6-Dioxopiperidin-3-yl)-1,3-dioxoisoindolin-4-yl)oxy)pentyl)-1H-1,2,3-triazol-4-yl)methyl)piperazin-1-v)pyridin-3-yl)amino)-1-methyl-2-oxo-1,4-dihydropyrimido[4,5-d]pyrimidin-3(2H)-yl)-4-methylphenyl)-3-(trifluoromethyl)benzamide]
[2]; Experiment wp152, direction of change down
  logFC MAPK9 (P45984): −2.161
[2]; [7]
  logFC: −1.344
  logFC MAPK9: −1.344
[2]; [9]
  logFC: −1.045
  logFC MAPK9: −1.045
[2]; [10]
  logFC: −0.929
  logFC MAPK9: −0.929
[2]; [11]
  logFC: −1.414
  logFC MAPK9: −1.414
[2]; [12]
  logFC: −0.5078
  logFC MAPK9: −0.5078
[2]; [8]
  logFC: −1.488
  logFC MAPK9: −1.488
[2]; [13]
  logFC: −0.7555
  logFC MAPK9: −0.7555
[2]; [14]
  logFC: −1.498
  logFC MAPK9: −1.498
[2]; [15]
  logFC: −2.137
  logFC MAPK9: −2.137
[2]; [16]
  logFC: −0.8343
  logFC MAPK9: −0.8343
[2]; MAPK9 P45984, experiment wp152
  logFC MAPK9: −2.161
[3]; experiment wp045
  logFC of CSK: −1.542
  logFC CSK: −1.542
[3]; experiment wp103
  logFC of CSK: −1.282
  logFC CSK: −1.282
[3]; experiment wp105
  logFC of CSK: −0.6868
  logFC CSK: −0.6868
[3]; experiment wp107
  logFC of CSK: −1.311
  logFC CSK: −1.311
[3]; experiment wp114
  logFC of CSK: −0.6932
  logFC CSK: −0.6932
[3]; experiment wp117
  logFC of CSK: −1.414
  logFC CSK: −1.414
[3]; experiment wp152
  logFC of CSK: −1.513
  logFC CSK: −1.513
[3]; experiment wp160, 2 hr
  logFC of CSK: −0.8308
  logFC CSK: −0.8308
[3]; experiment wp160, 4 hr
  logFC of CSK: −1.416
  logFC CSK: −1.416
[3]; experiment wp160, 8 hr
  logFC of CSK: −1.753
  logFC CSK: −1.753
[3]; experiment wp172
  logFC of CSK: −0.8538
  logFC CSK: −0.8538
[4]; [17]
  logFC MKNK2 (Q9HBH9-1): −0.4463
[4]; Experiment wp117, direction down
  logFC MKNK2 (Q9HBH9-1): −0.3794
[4]; direction down
  logFC MKNK2 (Q9HBH9): −0.4447
[4]; direction of change down
  logFC MKNK2 (Q9HBH9): −0.4447
[4]; Experiment wp160, 4 hr, direction down
  logFC MKNK2 (Q9HBH9-1): −0.5226
[4]; Experiment wp160, 8 hr, direction down
  logFC MKNK2 (Q9HBH9-1): −0.6422
[4]; experiment wp045
  logFC: −0.4463
[4]; experiment wp117
  logFC: −0.3794
[4]; experiment wp160, 4 hr
  logFC: −0.5226
[4]; experiment wp160, 8 hr
  logFC: −0.6422

## Cc1ccc(NC(=O)c2cccc(C(F)(F)F)c2)cc1N1Cc2cnc(Nc3ccc(N4CCN(CCCOc5cccc6c5C(=O)N(C5CCC(=O)NC5=O)C6=O)CC4)nc3)nc2N(C)C1=O (stereo not drawn) [DB0662]
[2]; [18]
  logFC: −2.611
  logFC MAPK9: −2.611
[3]; experiment wp168
  logFC of CSK: −1.833
  logFC CSK: −1.833
[4]; Experiment wp168, direction down
  logFC MKNK2 (Q9HBH9-1): −0.4185
[4]; experiment wp168
  logFC: −0.4185

## Cc1ccc(NC(=O)c2cccc(C(F)(F)F)c2)cc1N1Cc2cnc(Nc3ccc(N4CCN(CCCCCCOc5cccc6c5C(=O)N(C5CCC(=O)NC5=O)C6=O)CC4)nc3)nc2N(C)C1=O (stereo not drawn) [DB0663]
[2]; [7]
  logFC: −0.598
  logFC MAPK9: −0.598
[3]; experiment wp045
  logFC of CSK: −1.206
  logFC CSK: −1.206
[4]; [17]
  logFC MKNK2 (Q9HBH9-1): −0.4798
[4]; experiment wp045
  logFC: −0.4798

## Cc1ccc(NC(=O)c2cccc(C(F)(F)F)c2)cc1N1Cc2cnc(Nc3ccc(N4CCN(CCCCC(=O)N[C@H](C(=O)N5C[C@H](O)C[C@H]5C(=O)N[C@@H](C)c5ccc(-c6scnc6C)cc5)C(C)(C)C)CC4)nc3)nc2N(C)C1=O [DB1113]
[2]; [18]
  logFC: −1.216
  logFC MAPK9: −1.216
[3]; experiment wp168
  logFC of CSK: −1.62
  logFC CSK: −1.62

## Cc1cnc(Nc2ccc(N3CCN(CCCCCCC(=O)N[C@H](C(=O)N4C[C@H](O)C[C@H]4C(=O)N[C@@H](C)c4ccc(-c5scnc5C)cc4)C(C)(C)C)CC3)cc2)nc1Nc1cccc(S(=O)(=O)NC(C)(C)C)c1 [JWG.123]
[1]; Experiment wp195
  logFC STK17B (O94768): −1.872
[1]; experiment wp195
  logFC: −1.872

## O=C1CCC(N2C(=O)c3cccc(NCCCCCCCCN4CCC(NC(=O)c5[nH]ncc5NC(=O)c5c(Cl)cccc5Cl)CC4)c3C2=O)C(=O)N1 (stereo not drawn) [MFH.5.126.1]
[5]; Accession Q00537, experiment wp076
  logFC of CDK17: −0.5894
[5]; Experiment wp076, direction of change down
  logFC CDK17 (Q00537): −0.5894
[1]; Experiment wp076
  logFC STK17B (O94768): −0.5821
[1]; experiment wp076
  logFC: −0.5821

## CS(=O)(=O)Nc1cccc(-c2csc3cnc(Nc4ccc(N5CCN(CCOCCOCCOc6cccc7c6C(=O)N(C6CCC(=O)NC6=O)C7=O)CC5)cc4)nc23)c1 (stereo not drawn) [RSS0628]
[1]; Experiment wp045
  logFC STK17B (O94768): −1.075
[1]; experiment wp045
  logFC: −1.075

## Cn1c(=O)c(-c2c(Cl)cccc2Cl)cc2cnc(Nc3ccc(OCCNC(=O)CCCCCCNC(=O)COc4cccc5c4C(=O)N(C4CCC(=O)NC4=O)C5=O)cc3)nc21 (stereo not drawn) [SB1.G.192.1]
[3]; experiment wp071
  logFC of CSK: −2.271
  logFC CSK: −2.271
[3]; experiment wp081
  logFC of CSK: −1.966
  logFC CSK: −1.966
[3]; experiment wp131
  logFC of CSK: −1.816
  logFC CSK: −1.816

## CC(C)S(=O)(=O)c1ccccc1Nc1nc(Nc2ccc(N3CCN(CCOCCOCCC(=O)NCCNc4cccc5c4CN(C4CCC(=O)NC4=O)C5=O)CC3)cc2)ncc1Cl (stereo not drawn) [TL13.97]
[6]; CDK7 (P50613) protein abundance, degrader vs DMSO, down
  logFC: −1.05
[6]; CDK7 P50613, experiment wp137
  logFC CDK7: −1.05

## Nc1ncc(-c2ccc(S(=O)(=O)N(CCCNC(=O)CCOCCOCCOCCOCCOCCNc3cccc4c3C(=O)N(C3CCC(=O)NC3=O)C4=O)C3CC3)cc2)cc1-c1ccc2c(c1)CCNC2=O (stereo not drawn) [WH.10417.099]
[1]; Experiment wp056
  logFC STK17B (O94768): −1.507
[1]; Experiment wp103
  logFC STK17B (O94768): −1.292
[1]; Experiment wp105
  logFC STK17B (O94768): −0.7924
[1]; Experiment wp107
  logFC STK17B (O94768): −1.472
[1]; Experiment wp172
  logFC STK17B (O94768): −1.234
[1]; experiment wp056
  logFC: −1.507
[1]; experiment wp103
  logFC: −1.292
[1]; experiment wp105
  logFC: −0.7924
[1]; experiment wp107
  logFC: −1.472
[1]; experiment wp172
  logFC: −1.234
